The text below walks through data of PubChem BioAssay (NCI).

Test systems include OVCAR-4 ovarian; NCI-H23 lung; OVCAR-3 ovarian; HOP-62 NSCLC; NCI/ADR-RES ovarian; BT-549 breast; NCI-H460 lung; SF-268 CNS; MALME-3M melanoma.
What all share (assay): NCI anticancer screen, dose series, 48 h

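Grown in 96-well plates, cells were treated for 48 hours with each compound at five concentrations. Insufficient inhibition: endpoint recorded as highest concentration tested. The concentration for full growth arrest is given as TGI.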 Where a SMILES comes first, the peptide text is derived from it. Bridges are numbered along the chain shown (N, C = ends). The star is where a group is joined. Cbz = O=C(OCc1ccccc1)* Bounds are passed on as bounds.

Regarding `O=C(N/N=C/c1ccc(Cl)cc1)c1cc(I)cc(I)c1O`, the TGI in the assay on OVCAR-4 ovarian, in the assay with NCI-H23 lung, with OVCAR-3 ovarian, in the assay on HOP-62 NSCLC, with NCI/ADR-RES ovarian and with BT-549 breast was more than 100 µM in each case.

For the molecule `CCOP(=O)(OCC)C1(O)CC(n2cc(C)c(=O)[nH]c2=O)OC1CO` (configuration not stated), the TGI in the assay with OVCAR-4 ovarian, in the assay with NCI-H460 lung, with NCI-H23 lung, in the assay on OVCAR-3 ovarian, in the assay on SF-268 CNS and with HOP-62 NSCLC was more than 100 µM each time. For the same molecule, the TGI with MALME-3M melanoma and in the assay with NCI/ADR-RES ovarian was more than 100 µM each time.

As for `O=C1NC2CCCCC2N=C1/C(C(=O)c1ccccc1)=C(\O)c1ccccc1` (configuration not stated), the TGI in the assay on NCI-H460 lung, in the assay on NCI-H23 lung, in the assay on OVCAR-3 ovarian, in the assay on SF-268 CNS, in the assay on HOP-62 NSCLC and in the assay on MALME-3M melanoma was more than 100 µM in each case. The TGI in the assay on NCI/ADR-RES ovarian was more than 100 µM; in the assay on BT-549 breast it was 55.3 µM.

Regarding `O/N=C1\CCc2nonc2\C1=N/Nc1ccccc1`, the TGI in the assay on OVCAR-4 ovarian, in the assay on NCI-H460 lung, with NCI-H23 lung, in the assay on OVCAR-3 ovarian, in the assay with SF-268 CNS and with HOP-62 NSCLC was more than 100 µM each time. The TGI in the assay with MALME-3M melanoma and in the assay on NCI/ADR-RES ovarian was more than 100 µM each time.

Regarding `CC(=O)c1ccc(N2CCN(C3=CC(=O)c4c(O)ccc(O)c4C3=O)CC2)cc1`, the TGI in the assay on OVCAR-4 ovarian, with NCI-H460 lung, with NCI-H23 lung, in the assay with OVCAR-3 ovarian, in the assay with SF-268 CNS and in the assay with HOP-62 NSCLC was more than 100 µM in each case. The TGI in the assay on MALME-3M melanoma and in the assay on NCI/ADR-RES ovarian was more than 100 µM in each case.

As to `CSc1ncc2c(n1)-c1ccccc1OC2NC(C)(C)C` (configuration not stated), the TGI in the assay with OVCAR-4 ovarian, with NCI-H460 lung, in the assay with NCI-H23 lung, in the assay with OVCAR-3 ovarian, in the assay with SF-268 CNS and with HOP-62 NSCLC was more than 100 µM each time. Moreover, the TGI in the assay with MALME-3M melanoma and in the assay on BT-549 breast was more than 100 µM throughout.

As for `O/N=C1/C2CC3CC1(c1ccccc1)CC(/C3=N/O)/C2=N\O` (configuration not stated), the TGI in the assay on OVCAR-4 ovarian, in the assay on NCI-H460 lung, in the assay with NCI-H23 lung, in the assay with OVCAR-3 ovarian, with HOP-62 NSCLC and in the assay with MALME-3M melanoma was more than 100 µM in each case. Further, the TGI in the assay on BT-549 breast is more than 100 µM.

On to `CCNc1ncnc2c1nnn2CC`, for which the TGI in the assay on OVCAR-4 ovarian, in the assay with NCI-H23 lung, in the assay on OVCAR-3 ovarian, with HOP-62 NSCLC, in the assay on MALME-3M melanoma and in the assay with NCI/ADR-RES ovarian was more than 100 µM in each case.

`COc1ccc2c(c1OC)C(=O)O[C@@H]2[C@H]1c2cc3c(cc2CCN1C)OCO3`: the TGI in the assay on OVCAR-4 ovarian, in the assay with NCI-H460 lung, in the assay with NCI-H23 lung, with OVCAR-3 ovarian, in the assay with SF-268 CNS and in the assay on HOP-62 NSCLC was more than 100 µM each time. Besides, the TGI with NCI/ADR-RES ovarian and with BT-549 breast was more than 100 µM in each case.

For the molecule `CC(=O)O[C@H]1CN(S(=O)(=O)c2ccc(C)cc2)C[C@@H]1C1CCCCC1`, the TGI with OVCAR-4 ovarian is more than 100 µM; in the assay on NCI-H460 lung it was more than 100 µM; in the assay with NCI-H23 lung, more than 100 µM; with OVCAR-3 ovarian, 43.5 µM; with SF-268 CNS it was 90.8 µM; in the assay with HOP-62 NSCLC, more than 100 µM. The TGI with NCI/ADR-RES ovarian is 58.5 µM.

Take `Oc1ccc(Cl)cc1C1=N/C(=N\C/N=C2\N=C(c3cc(Cl)ccc3O)CC(c3ccccc3)N2)NC(c2ccccc2)C1` (configuration not stated): the TGI in the assay with OVCAR-4 ovarian, in the assay on NCI-H460 lung, with NCI-H23 lung, in the assay with OVCAR-3 ovarian, in the assay on SF-268 CNS and in the assay with HOP-62 NSCLC was more than 100 µM throughout. The TGI with NCI/ADR-RES ovarian and in the assay with BT-549 breast was more than 100 µM each time.

As for `CC1=C[C@@H](C)C[C@]2(C)CC[C@H](O2)[C@]23CC[C@](C)(C[C@H](O2)[C@@H]2O[C@@](C)(CC2=O)[C@@H](O)[C@H]2CC[C@@]4(CCC[C@@H](O4)[C@H](C)C(=O)O[C@H]4C[C@H]([C@]5(O)OCC[C@H](C)[C@@H]5O)O[C@H]4C=C1)O2)O3`, the TGI in the assay with NCI-H460 lung is more than 10 µM; in the assay on NCI-H23 lung it was 0.0826 µM; with OVCAR-3 ovarian, 0.02 µM; in the assay with SF-268 CNS, 0.0219 µM; in the assay on HOP-62 NSCLC, 0.00916 µM; in the assay with NCI/ADR-RES ovarian, more than 10 µM. The TGI with BT-549 breast stood at 0.0103 µM.

On to `O=C1c2ccccc2-c2nc(-c3ccccc3)cc3c2c1nc1ccccc13`, for which the TGI in the assay on OVCAR-4 ovarian was more than 100 µM; with NCI-H23 lung, 16.1 µM; in the assay on OVCAR-3 ovarian, 2.43 µM; with SF-268 CNS, 65.7 µM; in the assay with HOP-62 NSCLC it was 47.2 µM; with MALME-3M melanoma, 12.8 µM. Moreover, the TGI in the assay on NCI/ADR-RES ovarian was 47.1 µM; in the assay with BT-549 breast it was 42.9 µM.

With `Cc1ccnc(NC(=S)Nc2cccc(Cl)c2)c1`, the TGI with OVCAR-4 ovarian, with NCI-H460 lung, with OVCAR-3 ovarian, with SF-268 CNS, in the assay with HOP-62 NSCLC and in the assay with NCI/ADR-RES ovarian was more than 100 µM each time. Also, the TGI in the assay with BT-549 breast was more than 100 µM.

`O=c1[nH]cnc2sc(=S)c3c(c12)CCC3`: the TGI with OVCAR-4 ovarian is more than 100 µM; in the assay on NCI-H460 lung, more than 100 µM; in the assay on NCI-H23 lung it was 62.8 µM; in the assay with OVCAR-3 ovarian, 53.2 µM; in the assay on SF-268 CNS, more than 100 µM; in the assay with HOP-62 NSCLC, more than 100 µM. For the same molecule, the TGI in the assay with MALME-3M melanoma is 98.2 µM; in the assay on NCI/ADR-RES ovarian, more than 100 µM.

Consider `CC1C2CC(C/C2=N/O)C1(C)C` (configuration not stated), for which the TGI with OVCAR-4 ovarian, in the assay on NCI-H460 lung, in the assay on NCI-H23 lung, with OVCAR-3 ovarian, in the assay with SF-268 CNS and with HOP-62 NSCLC was more than 100 µM throughout. The TGI in the assay on MALME-3M melanoma and in the assay on BT-549 breast was more than 100 µM throughout.

In the case of `CCC(=O)NC(OCC1(CC)COC1)(C(F)(F)F)C(F)(F)F`, the TGI in the assay on NCI-H460 lung, in the assay with NCI-H23 lung, with OVCAR-3 ovarian, in the assay on SF-268 CNS, in the assay with HOP-62 NSCLC and in the assay on MALME-3M melanoma was more than 100 µM throughout. Moreover, the TGI in the assay on BT-549 breast is more than 100 µM.

Regarding `COC(=O)C1CCCCNC(=O)CCC(NC(=O)OCc2ccccc2)C(=O)N1` (stereo not drawn) (Cbz-Glu-Lys-OMe; lactam 1-2; configuration not given here), the TGI in the assay with OVCAR-4 ovarian, in the assay with NCI-H460 lung, in the assay on NCI-H23 lung, with OVCAR-3 ovarian, in the assay on SF-268 CNS and in the assay with HOP-62 NSCLC was more than 100 µM throughout. The TGI in the assay on MALME-3M melanoma and with NCI/ADR-RES ovarian was more than 100 µM throughout.

`C=CC(C)(C)c1cc([C@@H]2COc3cc(O)ccc3C2=O)c(O)c(O)c1OC`: the TGI in the assay on OVCAR-4 ovarian was 34.2 µM; in the assay with NCI-H460 lung, more than 100 µM; with NCI-H23 lung, 34 µM; in the assay on OVCAR-3 ovarian, 29.3 µM; with SF-268 CNS it was 37.4 µM; in the assay with MALME-3M melanoma, 93.6 µM. Besides, the TGI in the assay with NCI/ADR-RES ovarian is 64.3 µM; in the assay on BT-549 breast, 32.7 µM.

Take `COc1cc(OC)cc(-n2c(N)c(-c3nc4ccccc4n3C)c3ccc([N+](=O)[O-])cc3c2=O)c1`: the TGI was 88.4 µM with OVCAR-4 ovarian; more than 100 µM with NCI-H460 lung; more than 100 µM with NCI-H23 lung; more than 100 µM with SF-268 CNS; more than 100 µM in the assay with NCI/ADR-RES ovarian; more than 100 µM in the assay on BT-549 breast.

For `COc1cc2c(cc1C)NC(=O)/C2=C\c1ccncc1`, the TGI is more than 100 µM with OVCAR-4 ovarian; 41.7 µM in the assay with NCI-H460 lung; 9.28 µM in the assay on NCI-H23 lung; 10.3 µM in the assay with OVCAR-3 ovarian; 56.9 µM in the assay on SF-268 CNS; 22.8 µM with HOP-62 NSCLC. Further, the results for the TGI in the assay with MALME-3M melanoma and in the assay on NCI/ADR-RES ovarian were 32.1 µM and 10.7 µM, respectively.

In the case of `COc1cc(OC)c2c(O)c(S(=O)(=O)c3ccc(C)cc3)c(=O)oc2c1`, the TGI in the assay with OVCAR-4 ovarian, in the assay on NCI-H460 lung, in the assay on NCI-H23 lung, in the assay on OVCAR-3 ovarian, in the assay with SF-268 CNS and in the assay on MALME-3M melanoma was more than 100 µM each time. In addition, the TGI in the assay with NCI/ADR-RES ovarian and in the assay on BT-549 breast was more than 100 µM in each case.

As to `C=C(Br)CNCC(=C)Br`, the TGI in the assay with OVCAR-4 ovarian, with NCI-H460 lung, with NCI-H23 lung, in the assay with OVCAR-3 ovarian, in the assay with SF-268 CNS and with HOP-62 NSCLC was more than 100 µM each time. In addition, the TGI in the assay on MALME-3M melanoma and in the assay with NCI/ADR-RES ovarian was more than 100 µM each time.

As to `Cc1cc(S(=O)(=O)Nc2nc3ccccc3n2-c2ccccc2)c(S)cc1Cl`, the TGI in the assay with OVCAR-4 ovarian, with NCI-H460 lung, in the assay with OVCAR-3 ovarian, in the assay on SF-268 CNS, in the assay with MALME-3M melanoma and in the assay on NCI/ADR-RES ovarian was more than 100 µM in each case. Besides, in the assay with BT-549 breast, the TGI is more than 100 µM.

As for `CCOC(=O)c1c(NCc2ccccc2)n(-c2ccccc2)c(=S)n(-c2ccccc2)c1=O`, the TGI in the assay on OVCAR-4 ovarian, in the assay with NCI-H460 lung, with NCI-H23 lung, in the assay with OVCAR-3 ovarian, with SF-268 CNS and with MALME-3M melanoma was more than 100 µM in each case. Moreover, the TGI in the assay with BT-549 breast was more than 100 µM.
